Entries after “also recorded” stand apart in the source; their conditions may differ.
Tests used:
[1] = tested on: IL-17 mRNA; test: RT-PCR of IL-17 mRNA in mouse splenocytes under Th17 differentiation conditions; assay type: cell-based; conditions: EGCG 0, 1, 10, 50 ng/ml, Fig. 2a
[2] = tested on: Th17 cells (Th17 세포); test: Th17 cells in spleen of lupus syndrome mice, immunostaining (CD4, IL-17) and confocal microscopy; assay type: in vivo, mouse; conditions: EGCG 10uM, intraperitoneal, 10 injections, confocal microscopy, Fig. 3
[3] = tested on: IL-17 produced from Th17 cells (Th17세포); test: IL-17 production by mouse splenocytes under Th17 differentiation conditions (ELISA of culture medium, 3 days); assay type: cell-based; conditions: Th17 conditions (anti-CD3, anti-CD28, anti-IFNr, anti-IL-4, TGF beta), EGCG 0, 1, 10, 50 uM, Fig. 1
[4] = tested on: Foxp3 mRNA; test: RT-PCR of Foxp3 mRNA in mouse splenocytes under Th17 differentiation conditions (Treg activation); assay type: cell-based; conditions: EGCG 0, 1, 10, 50 ng/ml, Fig. 2b
[5] = tested on: Treg cells (Treg 세포); test: Treg cells in spleen of lupus syndrome mice, immunostaining (CD4, CD25, Foxp3) and confocal microscopy; assay type: in vivo, mouse; conditions: EGCG 10uM, intraperitoneal, 10 injections, Fig. 3
[6] = tested on: Treg cells (Treg 세포); test: Treg population in splenocytes of lupus syndrome mice under Treg differentiation conditions, FACS (CD4, CD25, Foxp3); assay type: cell-based; conditions: lupus mouse splenocytes, anti-CD3 2 ug/ml + TGF beta 5ng/ml, EGCG 10ng/ml, 72 h

## O=C(O[C@@H]1Cc2c(O)cc(O)cc2O[C@@H]1c1cc(O)c(O)c(O)c1)c1cc(O)c(O)c(O)c1 [EGCG, (-)-epigallocatechin gallate]
[1]
  IL-17 expression (mRNA): 농도 의존적으로 점점 감소
[2]
  IL-17 expression (degree of Th17 cell differentiation), compared with control: EGCG를 처리하지 않은 대조군이 처리한 군에 비해 녹색의 IL-17이 더 많이 발현
[3]
  amount of IL-17 cytokine produced: EGCG를 처리하지 않은 군에 비해 현저하게 감소; also recorded: EGCG 농도 의존적으로 IL-17의 생성이 감소
[4]
  Foxp3 expression (mRNA): EGCG를 처리하지 않은 군에 비해 현저하게 증가; also recorded: 농도 의존적으로 점점 증가
[5]; CD4/CD25 co-expression
  Treg cell activation in spleen: 비장에서 Treg 세포가 활성화 되었음
[5]; spleen, confocal microscopy
  Foxp3 expression in nucleus, compared with control: 대조군에 비해 많이 발현
[6]; Splenocyte, printed 'about 10-fold or more', read-out: increase of Treg cells compared with untreated group
  fold induction at 0.01 µg/mL: ≥ 10
[6]; untreated control 2.69, Fig. 4
  Foxp3 expression: 21.57

Reference: KR20110128542A, “Egcg를 유효성분으로 함유하는 쇼그렌 증후군, 베체트 증후군, 강직성척추염 또는 루프스의 예방 또는 치료용 조성물” (가톨릭대학교 산학협력단, priority 2010, dated 2011)
